US7078225B2, “Method for enzymatically producing an optically active cyanohydrin” (Nippon Shokubai Co., Ltd., priority 2000, dated 2006)

System: (R)-hydroxynitrile lyase
Assay: Effect of reaction inhibitor in the aldehyde on enzymatic synthesis of (R)-2-chloromandelonitrile (conversion by HPLC after five hours)
Assay type: biochemical, almond (Prunus amygdalus)
Conditions: 1 M aldehyde, 1.5 M prussic acid, immobilized enzyme 600 units, t-butyl methyl ether saturated with citrate buffer pH 5.5, five hours
Protocol: 2-chlorobenzaldehyde containing undetectable 2-chlorobenzoic acid (reaction inhibitor) was dissolved in t-butyl methyl ether saturated with 0.15 M citrate buffer (pH 5.5) to prepare a 1 M solution of 2-chlorobenzaldehyde. To this solution, 2-chlorobenzoic acid was added in different amounts to prepare aldehyde solutions of varying 2-chlorobenzoic acid contents.
Immobilized (R)-hydroxynitrile lyase (600 units) was introduced into 5 mil of each solution, and prussic acid was then added to reach 1.5 M, followed by synthesis of (R)-2-chloromandelonitrile. Five hours after initiation of the reaction, an aliquot of the reaction mixture was sampled to measure the conversion ratio of aldehyde by HPLC.

Compound: O=C(O)c1ccccc1Cl [2-chlorobenzoic acid]
- inhibition of the enzyme reaction (0.5 wt % 2-chlorobenzoic acid added to 2-chlorobenzaldehyde): about 30%
- inhibition of the enzyme reaction (1.1 wt % 2-chlorobenzoic acid added to 2-chlorobenzaldehyde): about 50%
